The values that follow come from ChEMBL document CHEMBL3351318, “Synthesis of novel 4-nitropyrrole-based semicarbazide and thiosemicarbazide hybrids with antimicrobial and anti-tubercular activity” (Bioorg Med Chem Lett, 2014).

Each structure is given as a SMILES string. pIC50: −log10 of the molar value. Converted amounts (≈) assume the structure as drawn.

For one assay, the system named is Escherichia coli. The assay can be described thus: Antimicrobial activity against Escherichia coli ATCC 25922 after 48 hrs by broth dilution technique. Type of assay: functional. Conditions: ATCC 25922, 48 h.
Another assay deals with Klebsiella pneumoniae. The assay can be described thus: Antimicrobial activity against Klebsiella pneumoniae after 48 hrs by broth dilution technique. Type of assay: functional. For orientation: Broth dilution looks for growth in wells or tubes with falling amounts of substance.
Assay [1] relates to Staphylococcus aureus. Nature of the assay: Antimicrobial activity against methicillin-sensitive Staphylococcus aureus ATCC 35556 after 48 hrs by broth dilution technique. Type of assay: functional. Conditions: ATCC 35556, 48 h.
The subject of assay [2] is Staphylococcus aureus. Nature of the assay: Antimicrobial activity against methicillin-resistant Staphylococcus aureus ATCC 43866 after 48 hrs by broth dilution technique. Type of assay: functional. Conditions: ATCC 43866, 48 h.
The subject of assay [3] is Candida albicans. The assay can be described thus: Antimicrobial activity against Candida albicans after 48 hrs by agar dilution method. Type of assay: functional.
In assay [4] the test system is Mycobacterium tuberculosis. The assay can be described thus: Antitubercular activity against Mycobacterium tuberculosis H37Rv after 7 days by Resazurin micro titer assay. Type of assay: functional. Conditions: 168 h. Background: The colour change of resazurin is a common sign of viable cells or microbes.
The subject of a further assay is Vero. The assay can be described thus: Cytotoxicity against African green monkey Vero cells assessed as reduction in cell viability after 72 hrs by MTT assay. Type of assay: cell-based. Conditions: Chlorocebus sabaeus.
In assay [5] the test system is Candida albicans. Nature of the assay: Ratio of Amphotericin B MIC to compound MIC for Candida albicans after 48 hrs by broth dilution technique. Type of assay: functional.
The subject of assay [6] is Staphylococcus aureus. The assay can be described thus: Ratio of ciprofloxacin MIC to compound MIC for methicillin-resistant Staphylococcus aureus ATCC 43866 after 48 hrs by broth dilution technique. Type of assay: functional.

Take `Cn1cc([N+](=O)[O-])cc1C(=O)NNC(=O)Nc1ccccc1`: the MIC (as a rule, the lowest concentration that inhibits growth of the organism) in the assay on Escherichia coli came out at 1.56 µg/mL (≈ 5.14 µM); in the assay on Klebsiella pneumoniae, 3.12 µg/mL (≈ 10.3 µM); in the assay on Staphylococcus aureus [1], 1.56 µg/mL (≈ 5.14 µM); in the assay on Staphylococcus aureus [2], 3.12 µg/mL (≈ 10.3 µM); against Candida albicans [3], 1.56 µg/mL (≈ 5.14 µM); in assay [4], 59.2 µg/mL (≈ 195 µM). Further, the pIC50 (as a rule, the IC50 on a negative log10 scale, so that one unit is a factor of ten) with Vero was 3.51. Moreover, the Ratio with Candida albicans [5] was 2.

`COc1ccc(NC(=O)NNC(=O)c2cc([N+](=O)[O-])cn2C)cc1`: the MIC against Escherichia coli is 1.56 µg/mL (≈ 4.68 µM); in the assay with Klebsiella pneumoniae, 3.12 µg/mL (≈ 9.38 µM); against Staphylococcus aureus [1] it was 1.56 µg/mL (≈ 4.68 µM); in the assay with Staphylococcus aureus [2], 3.12 µg/mL (≈ 9.38 µM); with Candida albicans [3], 1.56 µg/mL (≈ 4.68 µM); in [4] it was 26.1 µg/mL (≈ 78.3 µM). Further, the pIC50 in the assay with Vero was 3.48. The Ratio in the assay with Candida albicans [5] was 2.

In the case of `Cn1cc([N+](=O)[O-])cc1C(=O)NNC(=O)Nc1ccc([N+](=O)[O-])cc1`, the MIC with Escherichia coli came to 1.56 µg/mL (≈ 4.48 µM); against Klebsiella pneumoniae, 3.12 µg/mL (≈ 8.97 µM); in the assay with Staphylococcus aureus [1], 1.56 µg/mL (≈ 4.48 µM); in the assay on Staphylococcus aureus [2], 3.12 µg/mL (≈ 8.97 µM); in the assay on Candida albicans [3], 1.56 µg/mL (≈ 4.48 µM); in assay [4] it was 11.9 µg/mL (≈ 34.2 µM). In the assay with Vero, the negative logarithm of the IC50 (pIC50) is 3.40. Also, the Ratio with Candida albicans [5] was 2.

Regarding `Cn1cc([N+](=O)[O-])cc1C(=O)NNC(=O)Nc1ccc(Br)cc1`, the MIC was 1.56 µg/mL (≈ 4.08 µM) with Escherichia coli; 3.12 µg/mL (≈ 8.18 µM) against Klebsiella pneumoniae; 1.56 µg/mL (≈ 4.08 µM) against Staphylococcus aureus [1]; 3.12 µg/mL (≈ 8.18 µM) against Staphylococcus aureus [2]; 1.56 µg/mL (≈ 4.08 µM) in the assay on Candida albicans [3]; 7.8 µg/mL (≈ 20.4 µM) in assay [4]. Further, the pIC50 in the assay on Vero was 3.22. Further, in the assay on Candida albicans [5], the Ratio amounted to 2.

In the case of `Cn1cc([N+](=O)[O-])cc1C(=O)NNC(=O)Nc1ccc(Cl)cc1`, the MIC is 1.56 µg/mL (≈ 4.62 µM) against Escherichia coli; 3.12 µg/mL (≈ 9.25 µM) in the assay with Klebsiella pneumoniae; 1.56 µg/mL (≈ 4.62 µM) against Staphylococcus aureus [1]; 3.12 µg/mL (≈ 9.25 µM) against Staphylococcus aureus [2]; 1.56 µg/mL (≈ 4.62 µM) in the assay on Candida albicans [3]; 30.5 µg/mL (≈ 90.3 µM) in [4]. The negative logarithm of the IC50 (pIC50) in the assay on Vero is 3.54. In addition, the Ratio in the assay on Candida albicans [5] stood at 2.

Consider `COc1ccc(OC)c(NC(=O)NNC(=O)c2cc([N+](=O)[O-])cn2C)c1`, for which the MIC was found to be 1.56 µg/mL (≈ 4.29 µM) against Escherichia coli; 6.25 µg/mL (≈ 17.2 µM) in the assay on Klebsiella pneumoniae; 3.12 µg/mL (≈ 8.6 µM) against Staphylococcus aureus [1]; 6.25 µg/mL (≈ 17.2 µM) against Staphylococcus aureus [2]; 1.56 µg/mL (≈ 4.29 µM) in the assay on Candida albicans [3]; 42.4 µg/mL (≈ 117 µM) in assay [4]. Moreover, the pIC50 in the assay on Vero is 3.37. Further, in the assay on Candida albicans [5], the Ratio stood at 2.

Regarding `C=[N+]([O-])c1cc(C(=O)NNC(=O)NCc2ccccc2)n(C)c1`, the MIC with Escherichia coli stood at 3.12 µg/mL (≈ 9.91 µM); against Klebsiella pneumoniae, 3.12 µg/mL (≈ 9.91 µM); against Staphylococcus aureus [1], 1.56 µg/mL (≈ 4.95 µM); in the assay with Staphylococcus aureus [2], 3.12 µg/mL (≈ 9.91 µM); in the assay with Candida albicans [3], 1.56 µg/mL (≈ 4.95 µM); in assay [4], 51.9 µg/mL (≈ 165 µM). In the assay on Vero, the pIC50 is 3.52. For the same compound, the Ratio in the assay on Candida albicans [5] is 2.

As for `Cn1cc([N+](=O)[O-])cc1C(=O)NNC(=S)NCc1ccccc1`, the MIC against Escherichia coli came out at 1.56 µg/mL (≈ 4.68 µM); against Klebsiella pneumoniae, 3.12 µg/mL (≈ 9.37 µM); with Staphylococcus aureus [1], 0.78 µg/mL (≈ 2.34 µM); in the assay on Staphylococcus aureus [2], 1.56 µg/mL (≈ 4.68 µM); in the assay on Candida albicans [3], 1.56 µg/mL (≈ 4.68 µM); in assay [4] it was 31.9 µg/mL (≈ 95.7 µM). Further, the pIC50 in the assay with Vero is 3.62. Besides, the Ratio stood at 2 with Candida albicans [5] and 4 with Staphylococcus aureus [6].

In the case of `Cn1cc([N+](=O)[O-])cc1C(=O)NNC(=O)NCCc1ccccc1`, the MIC with Escherichia coli is 3.12 µg/mL (≈ 9.43 µM); against Klebsiella pneumoniae, 6.25 µg/mL (≈ 18.9 µM); against Staphylococcus aureus [1], 1.56 µg/mL (≈ 4.71 µM); in the assay with Staphylococcus aureus [2], 3.12 µg/mL (≈ 9.43 µM); against Candida albicans [3], 1.56 µg/mL (≈ 4.71 µM); in [4], 42.1 µg/mL (≈ 127 µM). Also, the pIC50 in the assay on Vero is 3.20. Further, in the assay with Candida albicans [5], the Ratio came to 2.

`Cn1cc([N+](=O)[O-])cc1C(=O)NNC(=O)NCc1ccco1`: the MIC with Escherichia coli turned out to be 1.56 µg/mL (≈ 5.08 µM); in the assay on Klebsiella pneumoniae, 3.12 µg/mL (≈ 10.2 µM); in the assay with Staphylococcus aureus [1] it was 1.56 µg/mL (≈ 5.08 µM); against Staphylococcus aureus [2] it was 3.12 µg/mL (≈ 10.2 µM); with Candida albicans [3], 1.56 µg/mL (≈ 5.08 µM); in [4] it was 17 µg/mL (≈ 55.3 µM). Also, the pIC50 in the assay with Vero is 3.32. Further, the Ratio with Candida albicans [5] turned out to be 2.

For the compound `Cn1cc([N+](=O)[O-])cc1C(=O)NNC(=O)NC1CCCC1`, the MIC with Escherichia coli was found to be 1.56 µg/mL (≈ 5.28 µM); against Klebsiella pneumoniae, 3.12 µg/mL (≈ 10.6 µM); in the assay with Staphylococcus aureus [1], 1.56 µg/mL (≈ 5.28 µM); in the assay with Staphylococcus aureus [2] it was 3.12 µg/mL (≈ 10.6 µM); in the assay with Candida albicans [3], 1.56 µg/mL (≈ 5.28 µM); in [4] it was 38.7 µg/mL (≈ 131 µM). In addition, the pIC50 in the assay on Vero was 3.57. In the assay on Candida albicans [5], the Ratio was found to be 2.

As for `O=C(NNC(=S)Nc1ccc([N+](=O)[O-])cc1)c1cc([N+](=O)[O-])c[nH]1`, the MIC is 1.56 µg/mL (≈ 4.45 µM) in the assay with Escherichia coli; 3.12 µg/mL (≈ 8.92 µM) with Klebsiella pneumoniae; 1.56 µg/mL (≈ 4.45 µM) with Staphylococcus aureus [1]; 3.12 µg/mL (≈ 8.92 µM) in the assay on Staphylococcus aureus [2]; 3.12 µg/mL (≈ 8.92 µM) against Candida albicans [3]; 0.5 µg/mL (≈ 1.43 µM) in assay [4]. The pIC50 with Vero was 3.28. The Ratio in the assay on Candida albicans [5] is 4.
